# In DBAASP:
# Several values for one entry are separate records, joined by “and”; a condition that tells them apart may be missing. Equal entries are not always repeated.
# What was measured:
# Test in all cases: ≥ marks a high value that may be exact or a test limit, other limits are often not marked, values filed in µg/mL are converted to µM
# [1] = tested on: Candida tropicalis CGMCC 2.1975
# [2] = tested on: Salmonella enterica subsp. enterica serovar Typhimurium C77-31
# [3] = tested on: Salmonella enterica subsp. enterica serovar Typhimurium ATCC 14028
# [4] = tested on: Staphylococcus aureus ATCC 43300
# Escherichia coli K99 = tested on: Escherichia coli K99
# [5] = tested on: Staphylococcus epidermidis ATCC 12228
# [6] = tested on: Staphylococcus aureus ATCC 25923
# Escherichia coli K88 = tested on: Escherichia coli K88
# [7] = tested on: Candida parapsilosis CGMCC 2.3989
# [8] = tested on: Candida albicans CGMCC 2.2086
# Escherichia coli 078 = tested on: Escherichia coli 078
# [9] = tested on: Pseudomonas aeruginosa ATCC 27853
# [10] = tested on: Salmonella enterica subsp. enterica serovar Pullorum ATCC 7913
# Escherichia coli UB1005 = tested on: Escherichia coli UB1005
# [11] = tested on: Klebsiella aerogenes MTCC 111
# [12] = tested on: Stenotrophomonas maltophilia MTCC 1890
# [13] = tested on: Staphylococcus haemolyticus MTCC 3383
# [14] = tested on: Enterococcus faecalis MTCC 439
# [15] = tested on: Pseudomonas aeruginosa MTCC 3542
# [16] = tested on: Alkalihalobacillus alcalophilus MTCC 860
# [17] = tested on: Shigella boydii MTCC 11947
# [18] = tested on: Staphylococcus aureus MTCC 3160
# [19] = tested on: Klebsiella oxytoca MTCC 2275
# [20] = tested on: Corynebacterium glutamicum MTCC 2679
# [21] = tested on: Vibrio cholerae MTCC 3904
# [22] = tested on: Citrobacter koseri MTCC 1657
# [23] = tested on: Salmonella enterica MTCC 9844
# [24] = tested on: Escherichia coli K12 MG1655
# [25] = tested on: Proteus mirabilis MTCC 3158
# [26] = tested on: Klebsiella pneumoniae MTCC 7407
# [27] = tested on: Citrobacter freundii MTCC 1658
# [28] = tested on: Shigella flexneri MTCC 1457
# [29] = tested on: Proteus vulgaris MTCC 1771
# [30] = tested on: Alcaligenes faecalis MTCC 1937
# [31] = tested on: Pluralibacter gergoviae MTCC 3826
# [32] = tested on: Acinetobacter baumannii MTCC 9829
# [33] = tested on: Bordetella bronchiseptica MTCC 6837
# [34] = tested on: Haemophilus influenzae MTCC 621
# [35] = tested on: Lactococcus lactis MG1363
# Escherichia coli INV-a = tested on: Escherichia coli INV-a
# [36] = tested on: Escherichia coli JW0368 ΔsbmA
# Escherichia coli = tested on: Escherichia coli
# [37] = tested on: Salmonella enterica subsp. enterica serovar Enteritidis MH91989
# [38] = tested on: Escherichia coli JW2778 ΔygdD
# Escherichia coli JJ2489 = tested on: Escherichia coli JJ2489
# [39] = tested on: Salmonella typhimurium SL1344
# [40] = tested on: Salmonella enterica serovar Tennessee
# Escherichia coli MC1041 = tested on: Escherichia coli MC1041
# Escherichia coli JW0013 = tested on: Escherichia coli JW0013
# [41] = tested on: Salmonella enterica subsp. enterica serovar Newport
# Escherichia coli J2210 = tested on: Escherichia coli J2210
# [42] = tested on: Salmonella enterica subsp. enterica serovar Infantis
# Escherichia coli MC1061 = tested on: Escherichia coli MC1061
# Escherichia coli O157:H7 = tested on: Escherichia coli O157:H7
# Escherichia coli JJ2487 = tested on: Escherichia coli JJ2487
compound,measurement,setting,value
CC[C@H](C)[C@H](NC(=O)[C@H](CCCN=C(N)N)NC(=O)[C@H](C)NC(=O)[C@H](C)N)C(=O)N[C@H](C(=O)N[C@@H](CC(C)C)C(=O)N[C@@H](CCCN=C(N)N)C(=O)NCC(=O)N[C@@H](CCCN=C(N)N)C(=O)N[C@@H](Cc1ccccc1)C(=O)N[C@@H](CCCN=C(N)N)C(N)=O)[C@@H](C)CC [AARIILRGRFR],MIC,[1],16 µM
same,MIC,[2],8 µM
same,MIC,[3],4 µM
same,MIC,[4],8 µM
same,MIC,Escherichia coli K99,2 µM
same,MIC,[5],8 µM
same,MIC,[6],16 µM
same,MIC,Escherichia coli K88,2 µM
same,MIC,[7],≥ 64 µM
same,MIC,[8],≥ 128 µM
same,MIC,Escherichia coli 078,4 µM
same,MIC,[9],16 µM
same,MIC,[10],4 µM
same,MIC,Escherichia coli UB1005,4 µM
CC[C@H](C)[C@H](NC(=O)[C@H](C)NC(=O)[C@H](CCCCN)NC(=O)[C@@H](N)CCC(=O)O)C(=O)N[C@@H](CC(C)C)C(=O)N[C@@H](CO)C(=O)N[C@@H](C)C(=O)N[C@@H](CC(C)C)C(=O)N[C@@H](CCCCN)C(=O)N[C@@H](CC(C)C)C(=O)N[C@@H](CC(C)C)C(=O)N[C@@H](CCCN=C(N)N)C(=O)N[C@@H](CC(C)C)C(=O)N[C@@H](C)C(=O)N[C@@H](CC(C)C)C(=O)O [EKAILSALKLLRLAL],MIC,[11],≥ 77.5 µM
same,MIC,[12],≥ 77.5 µM
same,MIC,[13],≥ 77.5 µM
same,MIC,[3],> 77.5 µM
same,MIC,[14],≥ 77.5 µM
same,MIC,[15],≥ 77.5 µM
same,MIC,[16],≥ 38.7 µM
same,MIC,[17],≥ 77.5 µM
same,MIC,[18],≥ 77.5 µM
same,MIC,[19],≥ 77.5 µM
same,MIC,[20],19.4 µM
same,MIC,[21],≥ 77.5 µM
same,MIC,[22],≥ 77.5 µM
same,MIC,[23],≥ 77.5 µM
same,MIC,[24],≥ 77.5 µM
same,MIC,[25],≥ 77.5 µM
same,MIC,[26],≥ 77.5 µM
same,MIC,[27],≥ 77.5 µM
same,MIC,[28],≥ 77.5 µM
same,MIC,[29],≥ 77.5 µM
same,MIC,[30],≥ 77.5 µM
same,MIC,[31],≥ 77.5 µM
same,MIC,[32],≥ 77.5 µM
same,MIC,[33],≥ 38.7 µM
same,MIC,[34],9.68 µM
CC[C@H](C)[C@H](N)C(=O)N[C@@H](CC(N)=O)C(=O)N[C@@H](Cc1c[nH]c2ccccc12)C(=O)N[C@@H](CCCCN)C(=O)NCC(=O)N[C@H](C(=O)N[C@@H](C)C(=O)N[C@@H](CC(C)C)C(=O)N[C@@H](CCSC)C(=O)N[C@@H](C)C(=O)N[C@@H](CCCCN)C(=O)N[C@@H](CCCCN)C(=O)N[C@@H](CC(C)C)C(=O)N[C@@H](CC(C)C)C(N)=O)[C@@H](C)CC [INWKGIALMAKKLL],MIC,[35],2.5 µM
same,MIC,Escherichia coli INV-a,7 µM
CC[C@H](C)[C@H](NC(=O)[C@@H]1CCCN1C(=O)[C@H](CCCCN)NC(=O)[C@@H]1CCCN1C(=O)[C@@H]1CCCN1C(=O)[C@@H](NC(=O)[C@@H]1CCCN1C(=O)[C@H](CCCN=C(N)N)NC(=O)[C@@H]1CCCN1C(=O)[C@H](CCCN=C(N)N)NC(=O)[C@H](Cc1ccc(O)cc1)NC(=O)[C@H](CO)NC(=O)CNC(=O)[C@H](CCCCN)NC(=O)[C@H](CC(=O)O)NC(=O)[C@@H](N)C(C)C)[C@@H](C)O)C(=O)N[C@@H](Cc1ccc(O)cc1)C(=O)N[C@@H](CC(N)=O)C(=O)N[C@@H](CCCN=C(N)N)C(=O)N[C@@H](CC(N)=O)C(=O)O [VDKGSYRPRPTPPKPIYNRN],MIC,[36],0.3 µM
same,MIC,Escherichia coli,0.15 µM and 0.208 µM
same,MIC,[37],0.15 µM
same,MIC,[38],0.104 µM
same,MIC,Escherichia coli JJ2489,0.078 µM
same,MIC,[39],0.075 µM
same,MIC,[40],0.075 µM
same,MIC,Escherichia coli MC1041,0.075 µM
same,MIC,Escherichia coli JW0013,0.037 µM
same,MIC,[41],0.037 µM
same,MIC,Escherichia coli J2210,0.075 µM
same,MIC,[42],0.098 µM
CC[C@H](C)[C@H](NC(=O)[C@H](CCCN=C(N)N)NC(=O)[C@H](CCCN=C(N)N)NC(=O)[C@@H]1CCCN1C(=O)[C@@H]1CCCN1C(=O)[C@H](CCCN=C(N)N)NC(=O)[C@@H]1CCCN1C(=O)[C@H](CCCN=C(N)N)NC(=O)[C@@H]1CCCN1C(=O)[C@H](CCCN=C(N)N)NC(=O)[C@H](Cc1ccc(O)cc1)NC(=O)[C@@H]1CCCN1C(=O)[C@@H]1CCCN1C(=O)[C@H](CCCCN)NC(=O)[C@H](CC(=O)O)NC(=O)[C@@H](N)C(C)C)C(=O)N[C@@H](Cc1ccc(O)cc1)C(=O)N[C@@H](CC(N)=O)C(=O)N[C@@H](CCCN=C(N)N)C(N)=O [VDKPPYRPRPRPPRRIYNR],MIC,[37],0.246 µM
same,MIC,Escherichia coli MC1061,0.0822 µM
same,MIC,Escherichia coli O157:H7,0.986 µM
same,MIC,[39],0.173 µM
same,MIC,Escherichia coli JJ2487,0.16 µM
same,MIC,Escherichia coli JW0013,0.173 µM
same,MIC,Escherichia coli J2210,0.16 µM
